Values quoted from earlier work, collected in patent US8105627B2, “Extended release venlafaxine tablet formulation” (priority 2003, dated 2012).
Where a name gives a salt, the structure may show the parent alone.

Conditions: plural daily dosing regimen

patients experiencing nausea: about forty five percent | patients in whom vomiting occurs: about seventeen percent
SMILES: COc1ccc(C(CN(C)C)C2(O)CCCCC2)cc1 (centres unmarked) [venlafaxine hydrochloride, 1-[(2-dimethylamino)-1-(4-methoxyphenyl)ethyl]cyclohexanol]
